Data taken from patent US20260317367A1, “SALTS INCLUDING CRYSTALLINE SALTS OF 25-HYDROXY-CHOLEST-5-EN-3-SULFATE AND METHODS FOR PREPARING SAME” (Durect Corporation, priority 2022, published 2026).
“Also recorded” adds a separate entry of the source. Counter-ions that a name gives are not always drawn.

Assays:
Type in all cases: physicochemical
[1] = Angle of repose of 25HC3S salts
In short: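 About 2 g of salt powder was poured through a 7 mm inner-diameter tube into a 21.14 mm rubber O-ring, forming a cone of fixed diameter. Cone height was measured with calipers and the angle of repose was calculated from it. Flow was classified per USP<1174>.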

[2] = Final pH of the solubility sample solutions in aqueous media; settings: for pH of the solubility sample, 0.9% Sodium Chloride: 0.9% sodium chloride (blank 5.8); for pH of the solubility sample, 5% Dextrose: 5% dextrose (blank 4.7); for pH of the solubility sample, FaSSGF: FaSSGF (blank 1.5, 1.6); for pH of the solubility sample, FaSSIF: FaSSIF (blank 6.5, 6.5); for pH of the solubility sample, FeSSIF: FeSSIF (blank 4.9, 5.0); for pH of the solubility sample, Water: water (blank 6.3)
In short: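 25HC3S salts shaken as excess-solid suspensions in aqueous media at room temperature (210 motions/min) for one day. Aliquots centrifuged at 12000 rpm for 12–15 min; clear supernatant assayed undiluted by HPLC.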

[3] = Overall rank order of powder flowability (angle of repose and Hausner ratio); settings: for Powder flowability, overall (in words): angle of repose and compressibility index/Hausner ratio combined; for Angle of Repose Rank Order / Hausner Ratio Rank Order / Overall Rank Order (Total Score): lower is better flow; for Overall Rank Order (Total Score): sum of both ranks
From the text: Table C5 was generated by adding the relative rank order of the 25HC3S salts for angle of repose and Hausner ratio results, and creating an Over All Rank Order of the salts powder flowability. The salts with the lower overall rank order score had better powder flowability.

[4] = Appearance (color, clumping, flowability) of stored 25HC3S salts
[5] = Thermogravimetric analysis (TGA), weight loss
In short: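 Mettler-Toledo TGA/DSC3, calibrated with indium, tin and zinc, balance checked with calcium oxalate. Sample in a hermetically sealed aluminium pan with pierced lid, heated under nitrogen from ambient to 350° C at 10° C/min. Weight loss reported against sample temperature.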

[6] = Solid-state chemical stability of 25HC3S salts at 2-8° C., 60° C. and 80° C. (HPLC assay and degradation products); settings: for % Impurities, Total / % Impurities, 25-HC: ND = Not Detected; for % Impurities, 25-HC: 25-Hydroxy-Cholesterol; for % Recovery: vs 2-8° C.; for Stability after 1 week at 60° C. (in words) / Stability after 3 weeks at 80° C. (in words): solid state; for Stability after 1 week at 60° C. (in words): 1 week (after 3 weeks at 2-8° C.)
In short: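 Crystalline 25HC3S salts (~25 mg powder per vial) stored at 2-8° C. or 80° C., pulled at 3 and 6 weeks; some 3-week 2-8° C. vials moved to 60° C. for 1 week. Dissolved in 100% methanol (sonication/vortexing, centrifugation or dilution), then HPLC against 25HC3S sodium standards (0.75-1.25 mg/mL) for assay and degradants.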

[7] = listed as 25HC3S hydroxyethylpyrrolidinium
[8] = 2-8° C., 3 wk, listed as 25HC3S hydroxyethylpyrrolidinium
[9] = 80° C., 3 wk, listed as 25HC3S hydroxyethylpyrrolidinium
[10] = 60° C., 1 wk, listed as 25HC3S hydroxyethylpyrrolidinium
[11] = listed as 25HC3S hydroxyethylammonium
[12] = 2-8° C., 3 wk, listed as 25HC3S hydroxyethylammonium
[13] = 80° C., 3 wk, listed as 25HC3S hydroxyethylammonium
[14] = 60° C., 1 wk, listed as 25HC3S hydroxyethylammonium

CC(CCCC(C)(C)O)C1CCC2C3CC=C4CC(OS(=O)(=O)O)CCC4(C)C3CCC12C (stereo not shown) [Salt #6]
Flow Property per USP<1174> Powder Flow ([1]; classification by angle of repose, listed as 25HC3S hydroxyethylpyrrolidinium): Poor - must agitate, | Angle of Repose [1, 7]: 53.8 degrees | Angle of Repose, Rounded Whole Number [1, 7]: 54 degrees | pH of the solubility sample, 0.9% Sodium Chloride [2, 7]: 8.3 | pH of the solubility sample, 5% Dextrose [2, 7]: 6.4 | pH of solubility sample solution in 5% dextrose ([2]; 5% dextrose (medium pH 4.7)): 6.4 | pH of the solubility sample, FaSSGF [2]: 1.6 | pH of the solubility sample, FaSSIF [2, 7]: 6.5 | pH of the solubility sample, FeSSIF [2, 7]: 4.9 | pH of the solubility sample, Water [2, 7]: 8.2 | Powder flowability, overall (in words) ([3]; listed as hydroxyethylpyrrolidinium): poorer flowability | Angle of Repose Rank Order [3, 7]: 15 | Hausner Ratio Rank Order [3, 7]: 10 | Overall Rank Order (Total Score) [3, 7]: 25 | Appearance [4, 8]: White, free flowing powder with clumping | Appearance ([4]; 60° C., 1 wk (after 3 weeks at 2-8° C.), listed as 25HC3S hydroxyethylpyrrolidinium): White, free flowing powder with clumping | Appearance after 3 weeks at 80° C. ([4]; 80° C.): completely burned | Appearance [4, 9]: Dark brown, melted material stuck to | Weight loss by TGA up to 181° C. ([5]; up to 181° C.): about 0.1% | Assay ([6]; 2-8° C., 3 wk, 30240 min, listed as 25HC3S hydroxyethylpyrrolidinium): 100.5 % w/w | % Impurities, Total [6, 8]: 2.0% | % Impurities, 25-HC [6, 8]: 0.3% | % Impurities, 25-HC [6, 10]: 0.4% | % Impurities, 25-HC [6, 9]: 0.3% | Physical and chemical solid-state stability (comments) ([6]; 60° C., 1 week, listed as 25HC3S Hydroxyethylpyrrolidinium): Stable after 1 week at 60 °C | Assay ([6]; 60° C., 1 wk (after 3 weeks at 2-8° C.), 10080 min, listed as 25HC3S hydroxyethylpyrrolidinium, 10080 min): 104.9 % w/w | % Recovery of 2-8° C./3 wk vs 60° C./1 wk ([6]; 60° C., 1 wk, 10080 min, listed as 25HC3S hydroxyethylpyrrolidinium): 104.4% | % Impurities, Total [6, 10]: 1.8% | Physical and chemical solid-state stability (comments) ([6]; 80° C., 3 weeks, listed as 25HC3S Hydroxyethylpyrrolidinium): totally decomposed after 3 | % Recovery ([6]; 80° C., 3 wk, 30240 min, listed as 25HC3S hydroxyethylpyrrolidinium, 30240 min): 0.0% | Assay ([6]; 80° C., 3 wk, 30240 min, listed as 25HC3S hydroxyethylpyrrolidinium): 0.0 % w/w | % Impurities, Total [6, 9]: 99.9% | Stability after 1 week at 60° C. (in words) ([6]; 60° C.): stable | Stability after 3 weeks at 80° C. (in words) ([6]; 80° C., 3 weeks): totally decomposed

CC(CCCC(C)(C)O)C1CCC2C3CC=C4CC(OS(=O)(=O)O)CCC4(C)C3CCC12C (stereo not shown) [Salt #5]
Angle of Repose [1, 11]: 24.8 degrees | Angle of Repose, Rounded Whole Number [1, 11]: 25 degrees | pH of the solubility sample, 0.9% Sodium Chloride [2, 11]: 8.2 | pH of the solubility sample, 5% Dextrose [2, 11]: 7.0 | pH of the solubility sample, FaSSGF [2]: 1.6 | pH of the solubility sample, FaSSIF [2]: 6.6 | pH of the solubility sample, FeSSIF [2]: 5.0 | pH of the solubility sample, Water [2, 11]: 8.6 | Powder flowability, overall (in words) ([3]; listed as crystalline 25HC3S hydroxyethylammonium): relatively good flowability | Powder flowability, overall (in words) ([3]; listed as hydroxyethylammonium): top three | Angle of Repose Rank Order [3, 11]: 1 | Hausner Ratio Rank Order [3, 11]: 1 | Overall Rank Order (Total Score) [3, 11]: 2 | Appearance [4, 12]: White, free flowing powder, no clumping | Appearance ([4]; 60° C., 1 wk (after 3 weeks at 2-8° C.), listed as 25HC3S hydroxyethylammonium): Light brown, partially melted material | Appearance after 3 weeks at 80° C. ([4]; 80° C.): completely burned | Appearance [4, 13]: Dark brown, partially melted material | Weight loss by TGA, ambient to 134° C. ([5]; ambient to 134° C.): about 2.7% | Assay ([6]; 2-8° C., 3 wk, 30240 min, listed as 25HC3S hydroxyethylammonium): 91.9 % w/w | % Impurities, Total [6, 12]: 3.1% | Overall physical and chemical stability (in words) ([6]; 2-8° C., 60° C., 80° C.): least stable organic salt; also recorded: least physically and chemically stable | % Impurities, 25-HC [6, 12]: 1.2% | % Impurities, 25-HC [6, 14]: 11.3% | Physical and chemical solid-state stability (comments) ([6]; 60° C., 1 week, listed as 25HC3S Hydroxyethylammonium): Totally decomposed after 1 week at 60 °C and after 3 weeks at 80 °C | Assay ([6]; 60° C., 1 wk (after 3 weeks at 2-8° C.), 10080 min, listed as 25HC3S hydroxyethylammonium, 10080 min): 0.0 % w/w | % Recovery of 2-8° C./3 wk vs 60° C./1 wk ([6]; 60° C., 1 wk, 10080 min, listed as 25HC3S hydroxyethylammonium): 0.0% | % Impurities, Total [6, 14]: 99.7% | Physical and chemical solid-state stability (comments) ([6]; 80° C., 3 weeks, listed as 25HC3S Hydroxyethylammonium): Totally decomposed after 1 week at 60 °C and after 3 weeks at 80 °C | % Recovery ([6]; 80° C., 3 wk, 30240 min, listed as 25HC3S hydroxyethylammonium, 30240 min): 0.0% | Assay ([6]; 80° C., 3 wk, 30240 min, listed as 25HC3S hydroxyethylammonium): 0.0 % w/w | % Impurities, Total [6, 13]: 100.1% | Stability after 1 week at 60° C. (in words) ([6]; 60° C.): totally decomposed | Stability after 3 weeks at 80° C. (in words) ([6]; 80° C., 3 weeks): totally decomposed
